Assay results published in patent publication US20080181874A1, “CELL COMPOSITION AND METHOD FOR TREATING CANCER” (priority 2007, published 2008).

What was measured:
[1] = tested on: viable tumor cells from the right chest wall lesion (mammary carcinoma cells); test: In vitro drug response of fresh tumor cells (DISC, MTT and redox assays); format: cell-based, human; design: key to ASSAY RESULT: Sensitive: A cancer cell is said to be sensitive to a drug when the drug inhibits the cell growth or proliferation of the cell to a greater degree than is expected for an appropriate control; Resistant: A cancer cell is said to be sensitive to a drug when the drug inhibits the cell growth or proliferation of the cell to a lesser degree than is expected for an appropriate control; conditions: for ASSAY RESULT: compared with a database of assays with similar technical characteristics; for ASSAY PREDICTED RESPONSE PROBABILITY: predicted from the assay result; for activity in vitro (in words): summary of the table
Protocol: An unfixed portion of the tumor was further analyzed for response to several drugs. A specimen consisted of 1 piece of yellow, white, and red tissue, obtained from the right chest wall lesion. The piece was soft and sticky in texture, measured 0.8×1.4 cm, and weighed 0.47 gm. The specimen was minced to individual pieces smaller than one mm with surgical scissors and digested for 1.3 hours with collagenase-DNAse. Viable tumor cells were enriched by Ficoll-diatriozate centrifugation. Cytospin slides were prepared, air-dried, and stained with Fast Green/Hamatoxyline-eosin. On this cytology preparation obtained from mechanically-dissociated, enzyme-digested tissue, there was a collection of somewhat pleomorphic tumor cells, consistent with mammary carcinoma cells. Tumor cells were present as loose cell clusters (60% of total tumor cells) and, less commonly, as discohesive single cells (40% of total tumor cells). The tumor cells measured 22-25 microns in diameter and had N/N+C ratios of 0.6-0.8. […] Nucleoli were variably prominent. There were no cells with large clear globular areas or secretory material within the cytoplasm. There was slight cytoplasmic and nuclear molding. Approximately 40% of the enriched tumor cell fraction consisted of normal-appearing connective tissue cells and inflammatory cells.
Cells were plated for testing in 3 different assay endpoints. In the DISC assay, the entire contents of the cell culture were cytocentrifuged onto permanent microscope slides and differentially stained to allow discrimination of normal and neoplastic cells and living and dead cells. […] The MTT assay measures mitochondrial metabolism in the entire cell culture. The redox assay measures total metabolic activity in the entire cell culture, using the Alamar Blue reagent to index the oxygen reduction potential of the culture medium. Because of the very low yield of viable tumor cells, only a small drug panel could be tested. Additionally, some drugs could be tested only in a single assay system.
At the conclusion of the culture period, there was 10% spontaneous attrition in viable tumor cell numbers. Formazan signal in the MTT assay was moderate, reflective of moderate cell metabolism, and allowing for an MTT assay of good quality. Percentage of tumor cells as a percentage of total viable cells at the conclusion of the culture was approximately 85. DISC and MTT assays were in reasonably good agreement. The overall technical quality of the assays was good, marred only by the low yield of tumor cells, which severely limited the scope of testing.
Results were compared with a database of assays which had similar technical characteristics, as the technical characteristics of these assays influence the in vitro results, along with the intrinsic drug resistance of the tumor cells. By controlling for technical characteristics such as spontaneous cell loss, metabolic signal at the conclusion of the culture, and tumor cell clustering, biological correlations are improved.

[2] = tested on: patients with very advanced stage IV breast cancer; conditions: components of the vaccine regimen, one patient each
Protocol: Breast cancer patients treated with a composition comprising AKCV-1 cells (administered in conjunction with GM-CSF) were evaluated. […] A small cohort of patients with very advanced stage 1V breast cancer were treated with a vaccine consisting of 10-20×10^6 viable, irradiated tumor cells (AKCV-1) admixed with an equal number of cryopreserved peripheral blood lymphocytes obtained by leukapheresis. Patients were pretreated with low-dose cyclophosphamide 300 mg/m^2 48-72 hrs prior to vaccine and received subcutaneous injections of GM-CSF just prior, and for 8 days after, vaccine inoculation.

| Molecule | ASSAY RESULT [1] | ASSAY PREDICTED RESPONSE PROBABILITY [1] | best drug in vitro ([1]; ranking among the drugs tested) | activity in vitro (in words) [1] | Toxicity [2] |
| --- | --- | --- | --- | --- | --- |
| CC(=O)O[C@H]1C(=O)[C@@]2(C)[C@H]([C@H](OC(=O)c3ccccc3)[C@]3(O)C[C@H](OC(=O)[C@H](O)[C@@H](NC(=O)c4ccccc4)c4ccccc4)C(C)=C1C3(C)C)[C@]1(OC(C)=O)CO[C@@H]1C[C@@H]2O [Taxol (Paclitaxel), Paclitaxel] | Sensitive | 62 | best drug in vitro | above-average activity |  |
| N.N.[Cl][Pt][Cl] [Cisplatin] | Intermediate | 30 |  |  |  |
| GM-CSF: granulocyte macrophage colony stimulating factor, given as subcutaneous injections |  |  |  |  | increasing ascites and abdominal discomfort |
| O=c1[nH]cc(F)c(=O)[nH]1 [Fluorouracil] | Intermediate | 20 |  |  |  |
| O=P1(N(CCCl)CCCl)NCCCO1 (centres unmarked) [Cyclophosphamide] | Sensitive | 55 |  | above-average activity | exacerbation of pericardial effusion and atrial fibrillation, which spontaneously resolved |
| N.N.O=C([O-])C1(C(=O)[O-])CCC1.[Pt+2] [(4HC) Carboplatin, Carboplatin] | Resistant | 5 |  | poor activity |  |
| COc1cccc2c1C(=O)c1c(O)c3c(c(O)c1C2=O)C[C@@](O)(C(=O)CO)C[C@@H]3O[C@H]1C[C@H](N)[C@H](O)[C@H](C)O1 [Doxorubicin] | Intermediate | 30 |  |  |  |
| COc1cc([C@@H]2c3cc4c(cc3[C@@H](O[C@@H]3O[C@@H]5CO[C@@H](C)O[C@H]5[C@H](O)[C@H]3O)[C@H]3COC(=O)[C@H]23)OCO4)cc(OC)c1O [Etoposide] | Sensitive | 55 |  | above-average activity |  |
| CCC1=C[C@@H]2CN(C1)Cc1c([nH]c3ccccc13)[C@@](C(=O)OC)(c1cc3c(cc1OC)N(C)[C@H]1[C@@](O)(C(=O)OC)[C@H](OC(C)=O)[C@]4(CC)C=CCN5CC[C@]31[C@@H]54)C2 [Vinorelbine] | Intermediate | 30 |  |  |  |
